Test results: publication PMC9321647, “Curcumin-Based β-Diketo Ligands for Ga^3+: Thermodynamic Investigation of Potential Metal-Based Drugs” (Pharmaceuticals, 2022)
Like-named read-outs stand apart in the source and are kept apart here. Marks after values point to notes of the source that are not given here.

Key:
[1] = tested on: HCT116 colon carcinoma cells; test: MTT cell viability assay; assay type: cell-based, Human; conditions: Homo sapiens, HCT-116, HCT116, 48 h of treatment, mean
Description: Human colorectal carcinoma HCT116 cells (#91091005, ECACC) were grown in an IMDM medium (Biowest) supplemented with 2 mM glutamine, 100 IU/mL penicillin, 100 μg/mL streptomycin and 10% FBS (Gibco). The cell lines were grown at 37 °C in a humidified incubator containing 5% CO2. The cells were verified to be mycoplasma-free and passaged < 3 months. The inhibition of cell proliferation was measured by colorimetric 3-(4,5-dimethylthiazol-2-yl)-2,5-diphenyltetrazolium bromide (MTT) assay. GI50 concentrations were determined using the CompuSyn software version 1.0 (ComboSyn, Inc., Paramus, NJ USA) (free download via www.combosyn.com, accessed on 30 May 2022), and statistical analyses were performed using the GraphPad PRISM software (version 6.01 for Windows, GraphPad Software, San Diego, California USA GraphPad Prism) using unpaired t-test. Data were considered to be statistically significant if p < 0.05 (*), p < 0.01 (**), p < 0.001(***) and p < 0.0001 (****).

[2] = Kinetic stability of ligands in simulated physiological conditions (UV-Vis); assay type: physicochemical; conditions: for Stability: percentage of the residual ligand after 4 h: PBS, pH 7.4, 37 °C in darkness; for Stability ranking (residual ligand after 4 h): rank among the 7 ligands, 1 = most stable
Description: The chemical stability of ligands and metal complexes at the M:L 1:L molar ratio at 37 °C in darkness was evaluated by UV−Vis spectroscopy as a change in absorbance in the 250−600 nm range over an overall period of 8 h. Solutions (5.0 × 10^–5 mol L^–1) of the ligands were prepared in 0.1 mol L^–1 phosphate-buffered solution (PBS) at pH 7.4. Spectra were recorded every 30 min. All profiles were linearized as the hyperbolic function defined by Equation (2), which represents an empirical model that describes drug decomposition or release well [42]:(2) t/f%=at+b where f% is the percentage of the residual compound at time t (min) referred to the starting concentration at time zero determined by reading the absorbance at λmax.

[3] = Keto-enol/diketo tautomer amounts by 1H NMR; assay type: physicochemical; conditions: molar percentage, MeOD-d4, 298 K; for KE (%) amount of keto–enol form: for 2 includes KE form of the Z isomer (6%)
Description: NMR spectra were recorded by means of a Bruker Biospin FT-NMR AVANCE III HD (600 MHz) spectrometer equipped with a CryoProbe BBO H&F 5 mm in inverse detection. The nominal frequencies were 150.90 MHz for ^13C and 600.13 MHz for ^1H, respectively. For each sample, 1–5 mg were weighed and diluted up to 0.6 mL with a proper solvent in a 5 mm NMR tube; 90° pulse was calibrated for each sample, and standard NMR parameters were used to achieve quantitative results (relaxation delay, 10 s). Proton and carbon chemical shifts are given in parts per million (ppm) versus external TMS and were determined by reference to the solvent residual signals. Typical 2D homo- and heteronuclear techniques were used for assignment, i.e., ^1H,^1H COSY, ^1H,^13C HSQC, ^1H,^13C HMBC. NMR investigations of Ga^3+:L systems were performed in MeOD-d4 by adding small amounts of a Ga(NO3)3 solution (10 μL each) to 1 mM ligand solution (0.6 mL) until reaching the desired metal-to-ligand molar ratio. The complexation reaction is fast, and spectra were registered few minutes after the addition. Two-dimensional ^1H,^13C heteronuclear multiple bond correlation (HMBC) experiments (hmbcgpndqf in Bruker library) were performed via heteronuclear zero and double quantum coherence, optimized on long-range couplings (^3/4JHC = 8 Hz), with no decoupling during acquisition, and gradient pulses were used for selection. The relative percentages of the isomeric forms were estimated on the basis of the NMR data. Particularly, ^1H NMR spectra were acquired in quantitative conditions being D1 (relaxation delay) at least five times the T1 of the slowest relaxing signal of interest. The raw data were Fourier-transformed, and then the processing was performed by zero filling (SI = TD), line broadening (lb 0.3 Hz), accurate phasing and correcting the baseline. The most isolated signals were selected for integration, i.e., the vinyl protons (H-3 and H-4), and an average of the integrated area (A) of H-3 and H-4 was used for relative quantitation, according to the following equation: %Tautomeri=(A(H−3)i+(A(H−4)i)/2/∑i(A(H−3)i+(A(H−4)i)/2×100

[4] = Spectrophotometric pH titrations of ligands (protonation constants, pKa); assay type: physicochemical; conditions: for logβ011 overall protonation constant / logβ012 overall protonation constant / logβ013 overall protonation constant / logβ014 overall protonation constant: HypSpec, spectrophotometric data; for pKa: aqueous solution (methanol stock diluted in water); for prevailing charge form at physiological pH (7.4): pH 7.4, species distribution
Description: (§1) UV–visible spectra were recorded with a JASCO V-570 UV/Vis/NIR spectrophotometer at 298 K in the 250–600 nm spectral range employing quartz cells (1 cm optical path). To perform spectrophotometric titrations, ligands (denoted generally as L in the following) were dissolved in methanol to give a mother solution (2.50 mM), that was then diluted in water in order to obtain a final concentration of 50 μM. The metal/ligand (M:L) solutions were obtained by adding appropriate quantities of Ga(NO3)3 as methanol solutions (5–10 mM) in order to obtain the metal-to-ligand 1:1 molar ratio (L = 50 μM and V = 25 mL). For both L and M:L systems, pH (initial value of about 5) was varied by adding small amounts (<1 μL) of concentrated NaOH (4 M) up to ca. pH 11, thus to consider volume variations negligible. To evaluate the complexation ratio, constant additions of the M solution (10 µL each time, M = 10^–2 M) were dropped into the ligand solution (V = 25 mL, L = 50 μM) using a micropipette in order to reach different M:L molar ratios. A constant ionic strength (NaNO3, 0.1 M) was maintained in all experiments. Spectrophotometric investigations of iron(III) systems were performed in the same conditions; the Fe^3+ solution was freshly prepared in methanol starting from Fe(NO3)3·9H2O. The overall protonation constants (logβqr) and the overall stability constants of metal complexes (logβpqr) were evaluated from spectrophotometric data. The stability constants (βpqr), defined by the following equations:(3) pM^m++qL^l^−+rH^+⇌MpLqHr(mp−lq+r) (4) βpqr=[MpLqHr(mp−lq+r)]/[M^m+]^p·[L^l−]^q·[H^+]^r where L is the ligand in the completely dissociated form and H is proton, were refined using least-squares calculation in HypSpec. The results of least-squares calculation include the standard deviations and correlation coefficients of the refined parameters. The quantities are obtained by performing error propagation calculation from the experimental errors onto the parameters. The stability constant refinement furnishes least-squares estimates of the standard deviation, σ, of the stability constant β. The error on logβ is calculated as follows: σ(logβ) = [log(β + σ) − log(β − σ)]/2.

[5] = Spectrophotometric pH-metric titrations of Ga^3+:ligand systems (stability constants, pGa, speciation); assay type: physicochemical; conditions: for logK11 apparent formation constant (Ga^3+, M:L 1:1) / logK12 apparent formation constant (Ga^3+, M:L 1:2) / logK13 apparent formation constant (Ga^3+, M:L 1:3): estimated from logβMLH; for Prevailing Species (pH 5.5) / Prevailing Species (pH 7.4): Ga^3+ complex species; for Prevailing Species (pH 7.4): ** possible formation of gallium hydroxide species; for pGa (−log[Ga^3+]free): [Ga^3+]total = 1 μM, [L]total = 10 μM, pH 7.4, 25 °C
Description: as §1
Hydroxide species, such as [Ga(OH)2]^+, were taken into account for calculations. The hydrolysis constants for Ga^3+ are as follows: logβ1,1,0 = −3.93; logβ2,1,0 = −7.73; logβ3,1,0 = −12.38; logβ4,1,0 = −15.96; logβ32,13,0 = −66.3; logβ3,1,0(s) = −3.54 [43]; pGa is defined as (−log[Ga^3+]free) and is calculated at specific conditions (Ga^3+total = 1 μM, Ltotal = 10 μM, pH 7.4, 25 °C). For the calculation of the iron(III) overall stability constants, the presence of [Fe(OH)]^2+, [Fe(OH)2]^+ and [Fe(OH)3] species was taken into account.

[6] = 298 K, calculated from logβ values, * = keto–enol moiety dissociation, read-out: pKa1
[7] = 298 K, calculated from logβ values, * = keto–enol moiety dissociation, read-out: pKa2
[8] = 298 K, calculated from logβ values, * = keto–enol moiety dissociation, read-out: pKa3
[9] = 298 K, calculated from logβ values, read-out: pKa4
[10] = 298 K, calculated from logβ values, * = keto–enol moiety dissociation

| Compound | Stability: percentage of the residual ligand after 4 h [2] | Stability ranking (residual ligand after 4 h) [2] | KK (%) amount of diketo form [3] | KE (%) amount of keto–enol form [3] | logβ011 overall protonation constant ([4]; 298 K) | pKa [4, 6] | log β 110 overall stability constant (Ga^3+) ([5]; 298 K, HypSpec) | log β 120 overall stability constant (Ga^3+) ([5]; 298 K, HypSpec) | log β 130 overall stability constant (Ga^3+) ([5]; 298 K, HypSpec) | logK11 apparent formation constant (Ga^3+, M:L 1:1) ([5]; 298 K) | logK12 apparent formation constant (Ga^3+, M:L 1:2) ([5]; 298 K) | logK13 apparent formation constant (Ga^3+, M:L 1:3) ([5]; 298 K) | Prevailing Species (pH 5.5) [5] | Prevailing Species (pH 7.4) [5] | pGa (−log[Ga^3+]free) [5] | logβ012 overall protonation constant ([4]; 298 K) | logβ013 overall protonation constant ([4]; 298 K) | logβ014 overall protonation constant ([4]; 298 K) | pKa [4, 7] | pKa [4, 8] | also measured |
| --- | --- | --- | --- | --- | --- | --- | --- | --- | --- | --- | --- | --- | --- | --- | --- | --- | --- | --- | --- | --- | --- |
| COc1cc(/C=C/C(=O)CC(=O)/C=C/c2ccc(O)c(OC)c2)ccc1O [CUR, Curcumin] | – | – | – | – | – | – | – | – | – | – | – | – | – | – | – | – | – | – | – | – | GI50 [1]: 12.9 µM |
| COc1cc(/C=C/C(O)=C/C(C)=O)ccc1OCCCBr [Compound 2, (3Z,5E)-6-[4-(3-bromopropoxy)-3-methoxyphenyl]-4-hydroxyhexa-3,5-dien-2-one] | 83% | 1 | 12% | 88 * % | 10.903 (8) | 10.9 | 8.129 (9) | 15.185 (4) | 20.45 (3) | 8.129 (9) | 15.185 | 20.45 | [Ga(L)3] | [Ga(L)3] | 13.1 | – | – | – | – | – | – |
| (3Z,5E)-4-hydroxy-6-(3-methoxy-4-methylphenyl)hexa-3,5-dien-2-one [Compound 1] | 77% | 3 | 4% | 96% | 10.212 (2) | – | 11.78 (4) | 20.30 (5) | 28.37 (7) | 7.38 (3) | 14.35 (3) | 19.1 (4) | [Ga(HL)3] | [Ga(L)3]^3− | 19.0 | 18.509 (3) | – | – | – | – | pKa1 [4, 10]: 8.297 (5); pKa2 [4, 10]: 10.212 (2) *; log β 111 overall stability constant (Ga^3+) ([5]; 298 K, HypSpec): 17.59 (3); log β 122 overall stability constant (Ga^3+) ([5]; 298 K, HypSpec): 34.77(3); log β 133 overall stability constant (Ga^3+) ([5]; 298 K, HypSpec): 49.7 (4) |

Second part, led by results:

| Stability: percentage of the residual ligand after 4 h [2] | Stability ranking (residual ligand after 4 h) [2] | KK (%) amount of diketo form [3] | KE (%) amount of keto–enol form [3] | logβ011 overall protonation constant ([4]; 298 K) | pKa [4, 6] | log β 110 overall stability constant (Ga^3+) ([5]; 298 K, HypSpec) | log β 120 overall stability constant (Ga^3+) ([5]; 298 K, HypSpec) | log β 130 overall stability constant (Ga^3+) ([5]; 298 K, HypSpec) | logK11 apparent formation constant (Ga^3+, M:L 1:1) ([5]; 298 K) | logK12 apparent formation constant (Ga^3+, M:L 1:2) ([5]; 298 K) | logK13 apparent formation constant (Ga^3+, M:L 1:3) ([5]; 298 K) | Prevailing Species (pH 5.5) [5] | Prevailing Species (pH 7.4) [5] | pGa (−log[Ga^3+]free) [5] | logβ012 overall protonation constant ([4]; 298 K) | logβ013 overall protonation constant ([4]; 298 K) | logβ014 overall protonation constant ([4]; 298 K) | pKa [4, 7] | pKa [4, 8] | Compound | also measured |
| --- | --- | --- | --- | --- | --- | --- | --- | --- | --- | --- | --- | --- | --- | --- | --- | --- | --- | --- | --- | --- | --- |
| 73% | 4 | 75% | 25% | 11.42 (2) | ~5 | – | – | – | 6.67 | – | – | – | – | 14.0 | 21.12 (6) | 29.76 (7) | 34.62 (5) | 8.64 | 9.7 | O=C(O)CCC(C(=O)/C=C/c1ccc(O)cc1)C(=O)/C=C/c1ccc(O)cc1 [Compound 6, (6E)-7-(4-hydroxyphenyl)-4-[(2E)-3-(4-hydroxyphenyl)prop-2-enoyl]-5-oxohept-6-enoic acid] | pKa [4, 9]: 11.4; prevailing charge form at physiological pH (7.4) [4]: negatively charged; log β 112 overall stability constant (Ga^3+) ([5]; 298 K, HypSpec): 27.79 (5); log β 113 overall stability constant (Ga^3+) ([5]; 298 K, HypSpec): 34.09 (5) |
| 79% | 2 | 75% | 25% | 12.22 (2) | ~5 | – | – | – | 6.68 | – | – | [Ga(H2L)2]^+ | [Ga(H2L)2]^+ ** | 15.3 | 21.61 (5) | 29.98 (4) | 34.92 (9) | 8.37 | 9.39 | COc1cc(/C=C/C(=O)C(CCC(=O)O)C(=O)/C=C/c2ccc(O)c(OC)c2)ccc1O [Compound 7, (6E)-7-(3-methoxy-4-hydroxyphenyl)-4-[(2E)-3-(3-methoxy-4-hydroxyphenyl)prop-2-enoyl]-5-oxohept-6-enoic acid] | pKa [4, 9]: 12.2; prevailing charge form at physiological pH (7.4) [4]: negatively charged; log β 112 overall stability constant (Ga^3+) ([5]; 298 K, HypSpec): 28.29 (5); log β 113 overall stability constant (Ga^3+) ([5]; 298 K, HypSpec): 36.51 (6) |
